According to patent US20060222636A1, “Compositions, methods and kits relating to reprogramming adult differentiated cells and production of embryonic stem cell-like cells” (The Rockefeller University, priority 2003, published 2006):
Where two headings read alike, the source gives them in different places.

Key:
[1] = tested on: Erk1/2 and GSK-3β phosphorylation; type: cell-based, human; settings: for M. leprae-induced Erk1/2 phosphorylation in presence of PKC inhibitor: 20 nM, serum starved 48 hours; for phosphorylation of Erk1/2 and GSK-3β in infected Schwann cells in presence of inhibitor: synchronized, continuous presence of inhibitor (15 μM)
Experimental: The cDNA produced was subsequently PCR amplified for 30 cycles using the various specific primers and fluorescent probes in a 384-well GeneAmp PCR system 9700 (Applied Biosystems, Foster City, Calif.). The level of each target gene was normalized to GAPDH gene as an endogenous reference. The data obtained were analyzed with the ABI PRISM 7900 HT Sequence detection system (Bulletin No. 2, Applied Biosystems). For control reactions the same master mixes were used but excluding the template RNA. Synchronization of Primary Schwann Cell and Kinase Inhibition Schwann cells that had been cultured for 30 days were synchronized for 48 hours by removing growth factor and serum. Schwann cells were then released to progress through the cell cycle by addition of 10% serum to the culture. Cytoplasmic and nuclear extracts obtained from these synchronized cells were prepared before (time 0) and after addition of serum at various time points (i.e., 9 to 18 hours after release). For Erk1/2 and pI3-k inhibition, pre-evaluated concentrations of specific MEK1/2 inhibitor UO126 (15 μM) and PD098059 (15 μM), pI3-k inhibitor LY294002 (15 μM) (Cell Signaling Technology) and SOS inhibitor (10 μg) (Upstate Biotechnology, Lake Placid, N.Y.) were added to the culture medium during synchronization and serum release, and cytoplasmic and nuclear extracts were prepared as described above and the proteins were immunoblotted using antibodies to phospho-Erk1/2, phospho-Akt, phosphoGSK-3β and cyclin-D1. For SOS inhibition studies, cell permeable SOS inhibitory peptide was added and the cells were treated as described above to analyze the effect of SOS inhibitor on M. leprae-induced activation of the above-referenced signaling molecules. None of the inhibitors examined produced any detectable apoptosis or non-apoptotic Schwann cell death under these conditions.
(§1) Human Schwann cells that had been cultured for 30 days with and without M. leprae were synchronized for 48 hours and then released to re-enter the cell cycle by addition of 10% serum. Cytoplasmic and nuclear extracts of these synchronized cells were prepared before and after addition of serum at different time points (9 to 18 hours after release). For Erk1/2 and PI3-k inhibition, pre-evaluated concentrations of specific MEK1/2 inhibitor UO126 (15 μM) and PD098059 (15 μM), pI3-k inhibitor LY294002 (15 μM) (Cell Signaling Technology), SOS inhibitor (10 μg) (Upstate Biotechnology, Lake Placid N.Y.) were used. For PKC and lck inhibition, pan-PKC inhibitor bisindolylmaleimide-I (20 nM) and Lck inhibitor PP2 (10 μM) (Calbiochem-Novabiochem Corporation, CA), respectively, were added to the culture medium during synchronization, and cytoplasmic and nuclear extracts were prepared as described above and were immunoblotted with antibodies to various phospho-specific signaling antibodies. None of the inhibitors produced any apoptosis or Schwann cell death under these conditions.

Lck/Ser-158 = assay: Phospho-Lck/Ser-158 immunoblot; type: cell-based, human; settings: PKC inhibitor (10 μM)
Experimental: as §1, with “For PKC and lck inhibition, pan-PKC inhibitor bisindolylmaleimide-I (20 nM) and Lck inhibitor PP2 (10 μM) (Calbiochem-Novabiochem Corporation, CA), respectively, were added to the culture medium during synchronization, and cytoplasmic and nuclear extracts were prepared as described above and were immunoblotted with antibodies to various phospho-specific signaling antibodies.” left out
To examine if the addition of exogenous Heregulin-β1 can induce Lck/Ser-158 phosphorylation, human Schwann cells were serum-starved for 48 hours and then incubated with 10 nM […] for 30 minutes. Subsequently, total protein lysates were prepared and the phosphorylation state of Erk1/2, PKC-alpha-betaII/βII and Lck-Ser158 were examined using phospho-specific antibodies.

PKCα/βII = assay: Phospho-PKC isoform immunoblot; type: cell-based, human
Experimental: as §1
Although PKC is known to play a role in oligodendrocyte proliferation and differentiation (Bhat et al., 1992, J. Neurosci. Res. 32:340-349; Stariha and Kim, 2001, Microsc. Res. Tech. 52:680-688), much less is known about its function in Schwann cells. […]

[2] = tested on: human primary Schwann cells; assay: Cell cycle FACS analysis (propidium iodide); type: cell-based
Experimental: Human primary Schwann cells, that had been cultured for 15 and 30 days with and without M. leprae were trypsinized and adjusted to equal cell number. For the experiments with kinase inhibitors, synchronized infected and control cells were treated with pre-evaluated concentrations of various inhibitors as described previously elsewhere herein, and with different combinations of inhibitors before being processed for cell cycle FACS (Lemoine and Marriott, 2001, J. Biol. Chem. 276:31851-31857). To assess the effect of Lck inhibitor on heregulin-induced cell cycle progression, synchronized Schwann cells were treated with heregulin for 30 minutes in the presence and absence of Lck inhibitor. Cells were then washed with PBS, fixed with 85% ethanol overnight at […] and suspended in 1 ml PBS containing 1% FBS, RNase A (250 μg/ml; Roche Molecular Biochemicals) and 100 μg/ml Propidium Iodide (Sigma) for 30 minutes at 37° C. Stained cells were washed twice with PBS and subjected to FACS analysis on a Becton Dickinson FACScan cytometer (Ruhl et al., 1999, J. Biol. Chem. 274: 34361-34368). The cell cycle profile was analyzed with CellQuest software (Becton & Dickinson).

cyclin D1 = assay: Nuclear cyclin D1 immunoblot of synchronized Schwann cells; type: cell-based, human; settings: added to MEK and Pi3-kinase inhibitors
Experimental: Protein expression intensity was normalized using β-actin expression as an internal control marker and quantified with a densitometer (Alpha Innotech Corporation, San Leandro, Calif.) using the Alpha Imager 2200 v.5.5 software. For preparation of nuclear and cytoplasmic extracts, cells were incubated in a buffer containing 10 mM HEPES pH 7.5, 60 mM KCl, 1 mM EDTA, 0.1% NP-40, 1 mM DTT, 1 mM PMSF and protease inhibitors cocktail for 10 minutes on ice. Lysates were then centrifuged for 10 minutes and the supernatant, which comprised of cytoplasmic extract, was collected. The pellet was re-suspended in a buffer containing 50 mM Tris-HCl pH 7.5, 150 mM NaCl, 1% sodium lauryl sarcosine, 1% NP-40, 0.1% SDS, 1 mM EDTA and protease inhibitors cocktail. After brief sonication, the lysates were centrifuged for 10 minutes and the supernatant, consisting of nuclear extract, was collected. The protein content in both extracts was determined using the BCA method per manufacturer's instructions (Pierce Chemical, Rockford, Ill.).
The cDNA produced was subsequently PCR amplified for 30 cycles using the various specific primers and fluorescent probes in a 384-well GeneAmp PCR system 9700 (Applied Biosystems, Foster City, Calif.). […] The data obtained were analyzed with the ABI PRISM 7900 HT Sequence detection system (Bulletin No. 2, Applied Biosystems). […]

human Schwann cells = assay: Apoptosis markers (TUNNEL assays, immunoblot of Caspase-3, Caspase-9, PARP); type: cell-based; settings: Camptothecin (1.5 μM)-treated Schwann cells, within 48 hours, positive control
Experimental: Total protein extracts were prepared from M. leprae infected and non-infected human Schwann cells in cell lysis and nuclear extraction buffer containing 62 mM Tris-HCl pH 6.8, 2% SDS, 10% Glycerol, 50 mM DTT and 0.2% protease inhibitors cocktail (Sigma, St. Louis, Mo.). Lysates were cleared by centrifugation and the protein content was determined according to the BCA method per manufacturer's instructions (PIERCE Chemical, Rockford Ill.). 40 μg of total cellular extracts were separated by sodium dodecyl sulfate-polyacrylamide gel electrophoresis (SDS-PAGE) and transferred to nitrocellulose membranes (Schleicher & Schuell, Keene, N.H.). Bound antibodies were detected using species-specific secondary antibodies coupled to HRP (Cell Signaling Technology, Beverly, Mass.) followed by enhanced chemiluminescence development (PIERCE Chemical, Rockford Ill.).
Total protein extracts were prepared by harvesting M. leprae infected human Schwann cells in cell lysis buffer and non-infected human Schwann cells in nuclear extracting buffer. Lysates were cleared by centrifugation and the protein content was determined according to the BCA method (PIERCE Chemical, Rockford Ill.). […] Protein expression intensity was normalized to β-actin expression and quantified with a densitometer (Alpha Innotech Corporation, San Leandro, Calif.) using the Alpha Imager 2200 v.5.5 software. […]

CN(C)CCCn1cc(C2=C(c3c[nH]c4ccccc34)C(=O)NC2=O)c2ccccc21 [bisindolylmaleimide-I]
M. leprae-induced Erk1/2 phosphorylation in presence of PKC inhibitor ([1]; with MEK1/2 and Pi3K inhibitors): significantly blocked
M. leprae-induced Erk1/2 phosphorylation in presence of PKC inhibitor ([1]; with MEK1/2 and Pi3K inhibitors, listed as PKC inhibitor): dramatically down-regulated
apoptosis or cell death of treated cells ([1]; bisindolylmaleimide-I 20 nM): no apoptosis or cell death
phosphorylation at Lck/Ser-158 in presence of PKC inhibitor (Lck/Ser-158; listed as PKC inhibitor): completely abolished
phosphorylation at Lck/Ser-158 in presence of PKC inhibitor (Lck/Ser-158; listed as PKCI): abrogated
M. leprae-induced phospho-PKCα/βII in presence of pan-PKC inhibitor (PKCα/βII): markedly blocked

CC(C)(C)n1nc(-c2ccc(Cl)cc2)c2c(N)ncnc21 [PP2]
net M. leprae-induced S-phase cell population in presence of Lck inhibitor ([2]; added to MEK and Pi3-kinase inhibitors): dramatically reduced
net S-phase population induced by exogenous heregulin-β1 in presence of Lck inhibitor ([2]; listed as Lck inhibitor): did not affect
net S-phase population induced by exogenous heregulin-β1 in presence of Lck inhibitor ([2]; listed as Lck-inhibitor): fails to respond
M. leprae-induced phosphorylation of Erk1/2 in presence of Lck inhibitor ([1]; 10 μM, with MEK1/2 and Pi3K inhibitors, 48 hours): significant reduction
nuclear cyclin D1 in presence of Lck inhibitor (cyclin D1; listed as Lck inhibitor): dramatically reduced
nuclear cyclin D1 in presence of Lck inhibitor (cyclin D1; listed as Lck-inhibitor): significant blockade

O=c1cc(N2CCOCC2)oc2c(-c3ccccc3)cccc12 [LY294002]
phosphorylation of Erk1/2 and GSK-3β in infected Schwann cells in presence of inhibitor [1]: not inhibited

N#CC(=C(/N)Sc1ccccc1N)/C(C#N)=C(\N)Sc1ccccc1N [U0126]
phosphorylation of Erk1/2 and GSK-3β in infected Schwann cells in presence of inhibitor [1]: not inhibited

CC[C@@]1(O)C(=O)OCc2c1cc1n(c2=O)Cc2cc3ccccc3nc2-1 [Camptothecin]
expression of apoptosis markers caspase 3, caspase 9, PARP (human Schwann cells): induced the expression of these apoptotic markers
expression of apoptosis markers caspase 3, caspase 9, PARP (human Schwann cells; listed as camptothecin): express all three apoptosis markers
